Assay results: patent US4200626A, “Haloplatinate dental composition for preventing and inhibiting dental caries” (Toyo Seiyaku Kasei Co., Ltd., priority 1978, dated 1980)

Experiments:
[1] = tested on: protease (collagenase or trypsin); test: Inhibition of protease digestion of the soft tissue in dentin (clear zone on opaque agar plates with decalcified dentin powder); format: biochemical; conditions: for Clear zone: aqueous solution pH 5.4
Procedure: The ability to inhibit digestion of the soft tissue in dentin was estimated according to the method described by Yanagida et al [Yanagida et al, Shonishikagaku Zasshi, Vol. 9, page 39 (1971)]. That is, firstly, a certain amount of human decalcified dentin powder was treated with a composition to be tested for certain minutes and then unbonded excess components were removed by dialysis to obtain a sample powder. Then, opaque agar plates were prepared by adding the sample powder, and a protease (collagenase or trypsin) was added to the plates. The inhibiting ability was estimated by observing whether a clear zone was formed on the plate or not. The clear zone is formed by dissolution of the powder with the enzyme, and the formation thereof means digestion of the soft tissue in dentin.
Each composition used in the test is an aqueous solution at pH 5.4.

mice = test: LD50 in mice (p.o.); format: in vivo
Description: Further, the dental composition of the present invention is useful from a viewpont of toxicity since these platinum compounds have lower toxicity than that of NaF.

[2] = Inhibition of acid decalcification of the hard tissue in dentin (human dentin powder); conditions: for Inhibition rate of decalcification: solution containing 2% platinum (or saturated) or 2% NaF, pH 5.4
Procedure: The ability to inhibit decalcification of the hard tissue was also estimated according to the method described by Nishino [Nishino, Osaka University Shigaku Zasshi, Vol. 1, page 1 (1969)]. That is, firstly, a certain amount of human dentin powder was treated with a composition to be tested for certain minutes and then unbonded excess components were removed by washing with water to obtain a sample powder. Then, the sample powder was treated with an acid solution (decalcification) and the amount of calcium in the solution, which was dissolved in the solution by action of the acid, was determined (sample calcium content). Similarly, untreated dentin powder was added to an acid solution and the amount of calcium in the acid solution was determined (control calcium content). From these values, the inhibition rate of decalcification was calculated as follows: [formula]
As a reference, a similar test was done by using an aqueous solution containing 2% of sodium fluoride (pH 5.4).

SMILES | Clear zone ([1]; platinum content 0.001%) | Clear zone ([1]; platinum content 0.01%) | Clear zone ([1]; platinum content 0.1%) | LD50 (p.o.) (mice) | Inhibition rate of decalcification ([2]; decalcification time 0.5 hour) [%] | Inhibition rate of decalcification ([2]; decalcification time 1.0 hour) [%] | Inhibition rate of decalcification ([2]; decalcification time 1.5 hour) [%] | Inhibition rate of decalcification ([2]; decalcification time 2.0 hour) [%] | Inhibition rate of decalcification ([2]; decalcification time 3.0 hour) [%] | Inhibition rate of decalcification ([2]; decalcification time 5.0 hour) [%] | Inhibition rate of decalcification ([2]; decalcification time 24.0 hour) [%] | Inhibition rate of decalcification ([2]; decalcification time 48.0 hour) [%] | inhibiting effect on decalcification of the hard tissue in dentin ([2]; result in words, from Table 2) | inhibition of the digestion ([1]; similar test using sodium fluoride, result in words)
[Cl][Pt-2]([Cl])([Cl])([Cl])([Cl])[Cl].[NH4+].[NH4+] [(NH4)2 PtCl6, ammonium hexachloroplatinate] | Present | None | None | – | – | – | – | – | – | – | – | – | – | –
[Cl][Pt-2]([Cl])([Cl])[Cl].[K+].[K+] [K2 PtCl4, potassium tetrachloroplatinate] | Present | None | None | 97 mg per kg of body weight | 27.28 | 28.11 | 30.86 | 29.65 | 30.22 | 31.54 | 31.69 | 32.27 | – | –
[I-].[I-].[I-].[I-].[I-].[I-].[K+].[K+].[Pt+4] [K2 PtI6, potassium hexaiodoplatinate] | Present | None | None | – | – | – | – | – | – | – | – | – | – | –
[Cl][Pt-2]([Cl])([Cl])([Cl])([Cl])[Cl].[Na+].[Na+] [Na2 PtCl6, sodium hexachloroplatinate] | Present | None | None | 130 mg per kg of body weight | 43.42 | 45.23 | 45.15 | 45.36 | 47.57 | 47.77 | 48.00 | 48.20 | superior inhibiting effect to that containing NaF at every decalcification time and the effect thereof is not decreased even though after 48 hours | –
[F-].[Na+] [NaF, sodium fluoride, reference compound] | – | – | – | about 90 mg per kg of body weight | 40.03 | 43.29 | 44.12 | 44.02 | 44.33 | 44.79 | 44.93 | 45.45 | – | no inhibition of the digestion was observed
